{"source": "patent US8642837B2", "about": "“Method to increase pathogen resistance in plants” (Expressive Research B.V., priority 2004, dated 2014)", "system": "callose deposition", "assay": "Callose deposition in plants tested with Peronospora parasitica", "format": "in vivo, Arabidopsis", "conditions": "treatment with BABA, positive control"}
{"smiles": "CC(N)CC(=O)O", "note": "(stereo not drawn) [BABA, β-aminobutyric acid]", "values": [{"measurement": "callose deposition", "value": "increased"}]}
